Measurements taken from patent publication US6426362B1, “Formulations of tocopherols and methods of making and using them” (Galileo Laboratories, Inc., priority 1999, dated 2002).

System: Oxidatively competent cells
Assay: Antimycin A-induced cell death in oxidatively competent cells, SYTOX assay after 4 hours
Type: cell-based, rat-human hybrid (GCL1)
Details: for Cell Death (%): ± SD; for cell death when tested individually: highest concentrations tested; for potency among the tocopherols tested: Table 1 comparison
Description: The GCL1 (WiF-B) liver cell line is a hybrid originating from the fusion of rat hepatoma cells (fao) and human fibroblasts (W138). Cassio et al. (1991) J. Cell Biol. 115:1397-1408; Shanks et al. (1994) J. Cell Science 107:813-825. […] Ihrke et al. 1993, J. Cell Biol. 123:1761-1775. At greater than 80% confluence, more than 80% of the cells participate in forming one or more phaselucent, spherical structures that are located between cells, termed bile canicular-like spaces. In contrast to the majority of cell lines maintained in culture which are fermentative, GCL1 cells, when at their maximal density and polarity, are highly oxidative (i.e., they can be readily killed by inhibitors of oxidative phosphorylation or electron transport uncouplers). […] These cells are amenable to use in high throughput screening (HTS) technology.
Energetically competent cells are seeded onto 96-well plates at 1×10^3/well or 2.5×10^3/well as passage 15. The cells are grown in DMEM with 10% FBS and 1.5 g/L sodium bicarbonate for 24 or 48 hours to reach 85% confluence. The cells are washed once with HBSS and then 100 μl of HBSS containing different concentration of AA (Sigma Chemical Co., Cat # A 8674) is added to the cells. AA is dissolved in DMSO to make a stock solution of 50 mM, then diluted with HBSS to 100, 50, 25, 12.5, 6.25, 3.125, and 1.56 μM for dose-response curves. The cells, with or without AA, are incubated at 37° C. in a 5% CO2 humidified incubator for 1, 3, and 5 hours. The concentration of AA is chosen to induce 75% or 100% cell death as a screening dose to test the effect of tocopherols to protect against AA-induced cell toxicity. The concentration of agents used for screening will be dependent upon the agents. Certain control groups contain 100 μl of HBSS only.
SYTOX Green nucleic acid stain is a high-affinity nucleic acid stain that easily penetrates cells with a compromised plasma membrane but will not cross the membrane of live cells. The nucleic acids of dead cells fluoresce bright green at 524 nm when excited with the 488 nm spectral source or with any other 450-500 nm source. […] In the cell viability assay chemical ischemia is created in cells that are incubated with the SYTOX dye. The compound antimycin is used to simulate ischemia at the same time as stimulating the cells with forskolin. […] The assay is performed on cells grown in 96-well format allowing high throughput screening of compounds.
Materials: (i)SYTOX Green dye, supplied as a 5 mM solution in DMSO (Molecular Probes # S-7020) is stored at −20° C. until use. ii.) Antimycin-A: (Sigma # A-8674) dissolve […] in 10 ml of DMSO to make a 10 mM stock solution. Aliquot at 100 μl. This 10 mM stock is then diluted to 1 mM with DMSO and aliquoted at 25 μL. Both the 10 mM and the 1 mM are stored at −20° C. until use. (iii) Forskolin (Sigma # F-6886), dissolve 50 mg aliquot in 1.62 ml of DMSO to make a 100 mM stock solution. Aliquot at 100 μl and store at −20° C. until use. iv.) HBSS-SYTOX-FORSKOLIN-ANTIMYCIN (H-S-F-A) solution: H-S-F-A solution is made up fresh prior to each assay in sterile 175 ml or 225 ml Falcon bottles. The working concentrations for the assay are 3 μM SYTOX, 50 μM Forskolin and 30 μM Antimycin.
Cells are grown in 96-well black plates (with or without clear bottoms) at a density of 1000 cells per well for 24 hours. The necessary number of 96-well plates containing the specific cell type are obtained and placed in the laminar flow safety cabinet. A sterile microtiter basin is filled with the appropriate volume of pre-warmed 1×HBSS. Using aseptic technique and an 8-channel aspirator, the media is carefully removed from the cells and replaced with 200 μl of 1×HBSS. This is done as quickly as possible to prevent the cells drying out. The plates are then placed in the humidified 37° C. incubators of the Biomek 2000 Side Loader.

[1] = salts of (+)alpha-tocopherol, dose of tocopherol 1.2 μg/ml
[2] = salts of (+)alpha-tocopherol, dose of tocopherol 3.7 μg/ml
[3] = salts of (+)alpha-tocopherol, dose of tocopherol 11 μg/ml
[4] = salts of (+)alpha-tocopherol, dose of tocopherol 33 μg/ml
[5] = salts of (+)alpha-tocopherol, dose of tocopherol 100 μg/ml
[6] = dose 1.2 μg/ml, with antimycin A, 4 hours, SYTOX
[7] = dose 3.7 μg/ml, with antimycin A, 4 hours, SYTOX
[8] = dose 11 μg/ml, with antimycin A, 4 hours, SYTOX
[9] = dose 33 μg/ml, with antimycin A, 4 hours, SYTOX
[10] = dose 100 μg/ml, with antimycin A, 4 hours, SYTOX

| Structure (SMILES) | Cell Death (%) [1] | Cell Death (%) [2] | Cell Death (%) [3] | Cell Death (%) [4] | Cell Death (%) [5] | Cell Death (%) [6] | Cell Death (%) [7] | Cell Death (%) [8] | Cell Death (%) [9] | Cell Death (%) [10] | also measured |
| --- | --- | --- | --- | --- | --- | --- | --- | --- | --- | --- | --- |
| Cc1c(C)c2c(c(C)c1OC(=O)CCC(=O)O)CC[C@@](C)(CCC[C@H](C)CCC[C@H](C)CCCC(C)C)O2 [alpha-tocopherol succinate] | 85.8 ± 1.4% | 83.9 ± 0.3% | 85.5 ± 2.5% | 90.4 ± 7.4% | 98.7 ± 6.0% |  |  |  |  |  |  |
| Cc1c(C)c2c(c(C)c1O)CCC(C)(CCCC(C)CCCC(C)CCCC(C)C)O2 (stereo not drawn) [alpha-tocopherol, 2,5,7,8-tetramethyl-2-(4′,8′,12′-trimethyltridecyl)-6-chromanol] |  |  |  |  |  |  |  |  |  |  | cell death when tested individually (biochanin A experiment): about half of the cells died |
| CC(=O)Oc1c(C)c(C)c2c(c1C)CCC(C)(CCC[C@H](C)CCC[C@H](C)CCCC(C)C)O2 (stereo partly drawn) [alpha-tocopherol acetate] | 73.2% ± 3.3 | 77.5% ± 4.9 | 71.1% ± 1.5 | 64.8% ± 4.9 | 38.% ± 2.3 |  |  |  |  |  | Cell Death (%) (salts of (+)alpha-tocopherol, dose of tocopherol 100 μg/ml, listed as acetate salt of alpha-tocopherol): 38% |
| COc1ccc(-c2cc(=O)c3c(O)cc(O[C@@H]4O[C@H](CO[C@@H]5O[C@@H](C)[C@H](O)[C@@H](O)[C@H]5O)[C@@H](O)[C@H](O)[C@H]4O)cc3o2)cc1O [diosmin, reference compound] |  |  |  |  |  |  |  |  |  |  | protection against stress-induced cell death (diosmin alone at 100 μM): no protection; protection against stress-induced cell death (diosmin alone, 3.3-100 μM): not protective by itself; protection against stress-induced cell death (diosmin alone, 33-100 μM): not effective |
| Cc1c(C)c2c(c(C)c1OC(=O)c1cccnc1)CC[C@@](C)(CCC[C@H](C)CCC[C@H](C)CCCC(C)C)O2 [alpha-tocopherol nicotinate] | 81.0 ± 2.5% | 76.8 ± 7.0% | 74.0 ± 2.4% | 77.5 ± 3.0% | 67.5 ± 2.8% |  |  |  |  |  |  |
| Cc1c(C)c2c(c(C)c1OP(=O)(O)O)CC[C@@](C)(CCC[C@H](C)CCC[C@H](C)CCCC(C)C)O2 [alpha-tocopherol phosphate] | 79.7 ± 8.7% | 76.5 ± 4.2% | 83.9 ± 4.4% | 47.2 ± 10.8% | 43.2 ± 17.4% |  |  |  |  |  |  |
| COc1ccc(-c2coc3cc(O)cc(O)c3c2=O)cc1 [biochanin A, 5,7-dihydroxy-4′-methoxyiso-flavone] |  |  |  |  |  |  |  |  |  |  | cell death when tested individually (biochanin A experiment): about half of the cells died |
| O=c1c(-c2ccc(O)cc2)coc2cc(O)ccc12 [daidzein, 7-hydroxy-3-(4-hydroxyphenyl)-4H-1-benzopyran-4-one] |  |  |  |  |  |  |  |  |  |  | cell death when tested individually (daidzein experiment): over half of the cells died |
| COc1ccc([C@@H]2CC(=O)c3c(O)cc(O)cc3O2)cc1O [hesperetin, (S)-2,3-dihydro-5,7-dihydroxy-2-(3-hydroxy-4-methoxyphenyl)-4H-1-benzopyran-4-one] |  |  |  |  |  |  |  |  |  |  | efficacy when tested separately (2 and 50 μM heperitin, 0.22 and 3.6 μg/ml tocopherol, cell death four hours later): generally ineffective |
| Cc1c(O)cc2c(c1C)OC(C)(CCCC(C)CCCC(C)CCCC(C)C)CC2 (centres unmarked) [+ gamma-tocopherol, 3,4-dihydro-2,7,8-trimethyl-2-(4,8,12-trimethyltridecyl)-2H-1-benzyopyran-6-ol] |  |  |  |  |  | 76.8 ± 3.1% | 69.3 ± 3.3% | 37.2 ± 0.7% | 16.7 ± 1.9% | −8.5 ± 3.3% | cell death (Example 7, alone at 1 μg/ml (highest concentration tested)): 62.5%; potency among the tocopherols tested: most potent; protection against stress-induced cell death (gamma-tocopherol alone, 0.03-0.3 μg/ml): not protective by itself |
| Cc1cc(O)cc2c1O[C@](C)(CCC[C@H](C)CCC[C@H](C)CCCC(C)C)CC2 (relative stereo) [(+) delta-tocopherol, [2R-[2R*(4R*,8R*)]]-3,4-dihydro-2,8-dimethyl-2-(4,8,12-trimethyltridecyl)-2H-1-benzo-pyran-6-ol] |  |  |  |  |  | 61.3% ± 4.2 | 39.3% ± 3.8 | 21.3% ± 1.0 | −8.19% ± 1.4 | −68.19% ± | potency among the tocopherols tested: most potent |
| Cc1c(C)c2c(c(C)c1O)CCC(C)(CCCC(C)CCCC(C)CCCC(C)C)O2 (racemic) [(+/−) alpha-tocopherol, 2,5,7,8-tetramethyl-2-(4′,8′,12′-trimethyltridecyl)-6-chromanol] |  |  |  |  |  | 77.2% ± 0.8 | 73.5% ± 1.2 | 52.4% ± 3.4 | 44.2% ± 1.2 | 19.7% ± 2.9 | protection against stress-induced cell death ((+/−) alpha-tocopherol alone at 10 μg/ml): about 15%; cell death (Example 7, alone at 10 μg/ml (highest concentration tested)): 53%; cell death (Example 8, tocopherol alone at 10 μg/ml): 79.4%; cell death when tested individually (daidzein experiment): over half of the cells died |
| Cc1c(C)c2c(c(C)c1O)CC[C@@](C)(CCC[C@H](C)CCC[C@H](C)CCCC(C)C)O2 (relative stereo) [(+) alpha-tocopherol, [2R-2R*(4R*,8R*)]-3,4-dihydro-2,5,7,8-tetramethyl-2-(4,8,12-trimethyltridecyl)-2H-1-benzopyran-6-ol] |  |  |  |  |  | 77.0% ± 2.5 | 70.13% ± 5.8 | 64.4% ± 3.1 | 49.8% ± 6.0 | 33.78% ± 1.5 |  |
